“And” between values parts separate entries of the source, which are not always exact repeats. Equal values may be shown once.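 Tested at 5 concentrations; 48 h exposure; 96-well plates; endpoints linearly interpolated, else capped at highest concentration. At the GI50, growth is halved. TGI marks complete inhibition of growth.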
How the values were obtained:
Assay in all cases: DTP human tumour cell line panel, 48 h
CAKI-1 renal = test system: CAKI-1 renal
UACC-62 melanoma = test system: UACC-62 melanoma
SK-MEL-2 melanoma = test system: SK-MEL-2 melanoma
SNB-19 CNS = test system: SNB-19 CNS
LOX IMVI melanoma = test system: LOX IMVI melanoma
EKVX NSCLC = test system: EKVX NSCLC
HS 578T breast = test system: HS 578T breast
CCRF-CEM leukemia = test system: CCRF-CEM leukemia
SF-539 CNS = test system: SF-539 CNS
NCI-H226 lung = test system: NCI-H226 lung

Structure (SMILES)	GI50 (CAKI-1 renal) [µM]	TGI (CAKI-1 renal) [µM]	GI50 (UACC-62 melanoma)	TGI (UACC-62 melanoma) [µM]	GI50 (SK-MEL-2 melanoma) [µM]	TGI (SK-MEL-2 melanoma) [µM]	GI50 (SNB-19 CNS)	TGI (SNB-19 CNS) [µM]	GI50 (LOX IMVI melanoma)	TGI (LOX IMVI melanoma) [µM]	GI50 (EKVX NSCLC)	TGI (EKVX NSCLC) [µM]	GI50 (HS 578T breast) [µM]	TGI (HS 578T breast) [µM]	GI50 (CCRF-CEM leukemia)	TGI (CCRF-CEM leukemia) [µM]	GI50 (SF-539 CNS) [µM]	TGI (SF-539 CNS) [µM]	GI50 (NCI-H226 lung)	TGI (NCI-H226 lung) [µM]
Cc1c(-c2ccnc(N)n2)c2c(n1-c1ccccc1)C(=O)c1ccccc1C2=O	17	62.6	27.2 µM	77.2	22.9	57.2	70 µM	> 100	10.6 µM	24.2	21.5 µM	63.7	22.4	60.8	> 100 µM	> 100	–	–	–	–
Cn1ccnc1C(=O)/C=C/c1ccc(CC(=O)Nc2cc(F)c(F)c(F)c2)cc1	2.27	7.54	2.14 µM	9.59	4.22	10.6	2.87 µM	6.59	1.03 µM	3.79	3.51 µM	7.41	10.8	> 25	–	–	1.5	4.68	3.4 µM	12.3
Nc1ccc(Sc2ccc3c4c2cccc4c(=O)n2c4ccccc4nc32)cc1	1.82	8.48	2.48 µM	16.1	8.87	65.6	6.17 µM	> 100	3.32 µM	14.3	–	–	10.1	> 100	2.35 µM	> 100	3.11	15.6	2.43 µM	11.3
Clc1ccc2c(NCCNc3nc(Cl)nc4ccccc34)ccnc2c1	–	–	1.81 µM	3.49	1.87	3.52	–	–	–	–	1.79 µM	3.56	2.26	4.96	0.331 µM	1.04	1.6	3.12	1.82 µM	3.53
Cc1ccc(/C=C2\CN(C(=O)CCN3CCC(=NO)CC3)C/C(=C\c3ccc(C)cc3)C2=O)cc1	–	–	–	–	2.75	7.02	1.58 µM	4.43	0.185 µM	0.397	2.72 µM	8.07	3.2	> 100	–	–	1.77	3.27	1.83 µM	3.86
CCN(CC)Cc1cc(Nc2c3ccc(Cl)cc3nc3c(C)cccc23)ccc1O	1.53	2.92	1.96 µM	3.64	1.94	3.73	1.45 µM	3.29	1.29 µM	2.61	1.86 µM	3.98	1.92	4.57	–	–	1.73	3.12	1.71 µM	3.51
COC(=O)C12CC(NC(=O)c3csc([C@@H](C[C@H](C(C)C)N(C)C(=O)[C@@H](NC(=O)[C@H]4CCCCN4C)C(C)C)OC(C)=O)n3)(C1)C2	–	–	0.00313 µM and 0.00333 µM	> 33.3	0.00197	–	0.0022 µM and 0.00333 µM	> 33.3	0.00217 µM and 0.00333 µM	> 33.3	0.018 µM and 0.00426 µM	> 33.3	0.00333	> 33.3	0.000518 µM and 0.00333 µM	> 33.3	0.00226	0.0267	0.0181 µM and 0.0227 µM	–
CCc1cc(Nc2nccc(-c3c(-c4ccc(OC)c(C(=O)Nc5c(F)cccc5F)c4)nc4ccccn34)n2)c(OC)cc1N1CCC(N2CCN(S(C)(=O)=O)CC2)CC1	> 100	> 100	> 100 µM	> 100	> 51.8	> 88.4	> 56.6 µM	> 100	> 100 µM	> 100	> 100 µM	> 100	> 100	> 100	–	–	> 100	> 100	> 69.3 µM	> 100
c1ccc2c(Nc3ccc4c(c3)OCO4)c3ccoc3nc2c1	12.3	33.3	13.9 µM	33.1	26.4	> 100	26.5 µM	81.3	17.9 µM	41.7	–	–	> 100	> 100	15.2 µM	> 100	–	–	25.5 µM	> 100
N#CCCCCCn1c2ccccc2c2c3c(c4c5ccccc5[nH]c4c21)C(=O)N(O)C3=O	1.85	4.01	–	–	1.83	4.67	0.959 µM	> 100	0.24 µM	1.44	1.77 µM	5.63	4.77	> 100	–	–	0.632	2.05	1.93 µM	4.74
C=C1C(=O)O[C@H]2[C@H]1CC/C(COC(=O)c1ccc(Br)cc1)=C\CC[C@@]1(C)O[C@@H]21	–	–	1.48 µM	2.94	1.64	3.06	1.85 µM	4.08	0.797 µM	2.19	1.76 µM	4.05	2.51	7.64	0.393 µM	7.76	1.5	2.88	2.06 µM	4.57
